This passage reports inhibition and Activity results from ChEMBL document CHEMBL1777696, “Anti-inflammatory activity of constituents from Glechoma hederacea var. longituba” (Bioorg Med Chem Lett, 2011).

The source made the active and inactive calls. The calls are words filed in the database; no cut-off is given here.

Series [1] relates to HepG2. As to the kind of experiment: Inhibition of TNF-alpha-induced NF-kappaB transactivation expressed in human HepG2 cells at 20 uM preincubated 1 hr before TNFalpha challenge measured after 1 hr by luciferase reporter gene assay. Format: cell-based. Background: Reporter assays use an easily measured gene product as a stand-in for the process of interest.
In series [2] the test system is HepG2. The series can be described thus: Inhibition of TNF-alpha-induced NF-kappaB transactivation expressed in human HepG2 cells at 10 uM preincubated 1 hr before TNFalpha challenge measured after 1 hr by luciferase reporter gene assay. It is filed as cell-based.
Series [3] concerns HepG2. As to the kind of experiment: Inhibition of TNF-alpha-induced iNOS mRNA expression in human HepG2 cells expressing NF-kappaB preincubated 1 hr before TNFalpha challenge measured after 6 hrs by RT-PCR analysis. It is filed as functional, cell-based.
The test system of series [4] is HepG2. The series can be described thus: Cytotoxicity against human HepG2 cells up to 20 uM after 24 hrs by MTS assay. It is filed as cell-based. The settings on record: hepg2, 24 h. On the technique in general: Tetrazolium dyes change colour on reduction, which living cells bring about.
The subject of series [5] is HepG2. As to the kind of experiment: Inhibition of TNF-alpha-induced COX2 mRNA expression in human HepG2 cells expressing NF-kappaB preincubated 1 hr before TNFalpha challenge measured after 6 hrs by RT-PCR analysis. Format: functional, cell-based.
The test system of series [6] is HepG2. The series can be described thus: Inhibition of TNF-alpha-induced NF-kappaB transactivation expressed in human HepG2 cells at 0.1 to 20 uM preincubated 1 hr before TNFalpha challenge measured after 1 hr by luciferase reporter gene assay. Format: cell-based.

In general, inhibition refers to how much of the control response was suppressed.

As to `COC(=O)[C@@H](Cc1ccc(O)c(O)c1)OC(=O)/C=C/c1ccc(OC)c(O)c1`, the inhibition is 45.4% in series [1], 28.7% in series [2], “Dose-dependent effect” in series [3] and “Dose-dependent effect” in series [5]. The Activity result in series [4] was “Non-toxic”.

Regarding `O=C(/C=C/c1ccc(O)c(O)c1)O[C@H](Cc1ccc(O)c(O)c1)C(=O)O` [ROSMARINIC ACID], in series [1], the inhibition is 22.7%. In series [4], the Activity result was “Non-toxic”.

Consider `COc1cc(/C=C/C(=O)O[C@H](Cc2ccc(O)c(O)c2)C(=O)O)ccc1O`, for which, in series [6], the inhibition entry was “Active”. In addition, the Activity entry in series [4] is reported as “Non-toxic”.

On to `CCOC(=O)[C@@H](Cc1ccc(O)c(O)c1)OC(=O)/C=C/c1ccc(O)c(O)c1` [ETHYL ROSMARINATE], for which the inhibition in series [1] is 57%; in series [3] it was “Dose-dependent effect”; in series [5] it was “Dose-dependent effect”. Besides, the Activity entry in series [4] is given as “Non-toxic”.

As for `COC(=O)[C@@H](Cc1ccc(O)c(O)c1)OC(=O)/C=C/c1ccc(O)c(O)c1` [METHYL ROSMARINATE], the figures for the inhibition in series [1], in series [3] and in series [5] were 44.3%, “Dose-dependent effect” and “Dose-dependent effect”, respectively. Besides, the Activity entry in series [4] is “Non-toxic”.

As to `O=C(OCc1ccccc1)c1ccc(O)c(O[C@@H]2O[C@H](CO)[C@@H](O)[C@H](O)[C@H]2O)c1`, the inhibition result in series [6] is “Active”. For the same molecule, the Activity result in series [4] is recorded as “Non-toxic”.
